# Measurements taken from patent US12577226B2, “Compounds for treating Huntington's disease” (PTC THERAPEUTICS, INC., priority 2019, dated 2026).
# System: Endogenous Huntingtin Protein (capture with MW1 (expanded polyglutamine) or MAB2166 antibody)
# Test: Endogenous Huntingtin Protein Assay (ELISA-based Meso Scale Discovery electrochemiluminescence assay)
# Format: cell-based
# Conditions: MSD electrochemiluminescence platform
# Summary of the method: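 MSD electrochemiluminescence sandwich immunoassay: plates coated with 1 μg/mL MW1 or MAB2166 capture antibody, samples incubated overnight at 4 °C. Detection with rabbit monoclonal #5656S then SULFO-TAG anti-rabbit (each 0.25 μg/mL, 1 h RT).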
row,Molecule,IC50 [nM]
1,"Cc1nc2ccc(-c3cnc(-c4ccc(N5C[C@@H](C)N[C@@H](C)C5)nn4)c(O)c3)cn2n1 [Compound 99, 2-{6-[(3R,5S)-3,5-dimethylpiperazin-1-yl]pyridazin-3-yl}-5-(2-methyl[1,2,4]triazolo[1,5-a]pyridin-6-yl)pyridin-3-ol and 2-{6-[(3S,5R)-3,5-dimethylpiperazin-1-yl]pyridazin-3-yl}-5-(2-methyl[1,2,4]triazolo[1,5-a]pyridin-6-yl)pyridin-3-ol]",100 to 500
2,"Cc1n[nH]cc1CNc1cnc(-c2ccc(N3CCNC(C)C3)nn2)c(O)c1 (stereo not drawn) [Compound 108, 2-[6-(3-methylpiperazin-1-yl)pyridazin-3-yl]-5-{[(3-methyl-1H-pyrazol-4-yl)methyl]amino}pyridin-3-ol]",500 to 1000
3,"2-{3-[(3R)-3-(tert-butylamino)pyrrolidin-1-yl]-1,2,4-triazin-6-yl}-5-(2,8-dimethylimidazo[1,2-b]pyridazin-6-yl)pyridin-3-ol [Compound 149]",≤ 100
4,2-{6-[(3R)-(tert-butylamino)pyrrolidin-1-yl]pyridazin-3-yl}-5-(1-methyl-1H-pyrazol-3-yl)pyridin-3-ol and 2-{6-[(3S)-(tert-butylamino)pyrrolidin-1-yl]pyridazin-3-yl}-5-(1-methyl-1H-pyrazol-3-yl)pyridin-3-ol [Compound 17],500 to 1000
5,"CC(C)[C@H]1CN(c2ncc(-c3ncc(-n4nccn4)cc3O)nn2)CCN1 [Compound 156, 2-{3-[(3S)-3-(propan-2-yl)piperazin-1-yl]-1,2,4-triazin-6-yl}-5-(2H-1,2,3-triazol-2-yl)pyridin-3-ol]",100 to 500
6,"2-(6-{[(1R,3s,5S)-1,5-dimethyl-8-azabicyclo[3.2.1]octan-3-yl]oxy}pyridazin-3-yl)-5-(1H-1,2,3-triazol-1-yl)pyridin-3-ol and 2-(6-{[(1S,3r,5R)-1,5-dimethyl-8-azabicyclo[3.2.1]octan-3-yl]oxy}pyridazin-3-yl)-5-(1H-1,2,3-triazol-1-yl)pyridin-3-ol [Compound 71]",100 to 500
7,"CC1(C)CC(Oc2ccc(-c3ncc(-c4cn[nH]c4F)cc3O)nn2)CC2(CC2)N1 (stereo not drawn) [Compound 26, 2-{6-[(5,5-dimethyl-4-azaspiro[2.5]octan-7-yl)oxy]pyridazin-3-yl}-5-(5-fluoro-1H-pyrazol-4-yl)pyridin-3-ol]",≤ 100
8,"CC1(C)CC(Oc2ccc(-c3ncc(-n4nccn4)cc3O)nn2)CC2(CC2)N1 (stereo not drawn) [Compound 21, 2-{6-[(5,5-dimethyl-4-azaspiro[2.5]octan-7-yl)oxy]pyridazin-3-yl}-5-(2H-1,2,3-triazol-2-yl)pyridin-3-ol]",≤ 100
9,5-[(6-methylpyridin-3-yl)amino]-2-{6-[(3R)-3-(propan-2-yl)piperazin-1-yl]pyridazin-3-yl}pyridin-3-ol and 5-[(6-methylpyridin-3-yl)amino]-2-{6-[(3S)-3-(propan-2-yl)piperazin-1-yl]pyridazin-3-yl}pyridin-3-ol [Compound 127],≤ 100
10,"C[C@@H]1CN(c2ccc(-c3ncc(/C=C/c4cnn(C)c4)cc3O)nn2)C[C@H](C)N1 [Compound 118, 2-{6-[(3R,5S)-3,5-dimethylpiperazin-1-yl]pyridazin-3-yl}-5-[(E)-2-(1-methyl-1H-pyrazol-4-yl)ethenyl]pyridin-3-ol and 2-{6-[(3S,5R)-3,5-dimethylpiperazin-1-yl]pyridazin-3-yl}-5-[(E)-2-(1-methyl-1H-pyrazol-4-yl)ethenyl]pyridin-3-ol]",≤ 100
11,"CC1(C)CC(Nc2cnc(-c3ncc(-n4nccn4)cc3O)nn2)CC(C)(C)N1 [Compound 163, 2-{6-[(2,2,6,6-tetramethylpiperidin-4-yl)amino]-1,2,4-triazin-3-yl}-5-(2H-1,2,3-triazol-2-yl)pyridin-3-ol]",≤ 100
12,"5-(2,4-dimethyl-1,3-benzoxazol-6-yl)-2-(6-{[(3R,4S)-3-fluoro-2,2,6,6-tetramethylpiperidin-4-yl]oxy}pyridazin-3-yl)pyridin-3-ol and 5-(2,4-dimethyl-1,3-benzoxazol-6-yl)-2-(6-{[(3S,4R)-3-fluoro-2,2,6,6-tetramethylpiperidin-4-yl]oxy}pyridazin-3-yl)pyridin-3-ol [Compound 56]",≤ 100
13,"Cn1cc2cc(-c3cnc(-c4cnc(N5CCN[C@@H](C6CC6)C5)nn4)c(O)c3)cc(F)c2n1 [Compound 158, 2-{3-[(3S)-3-cyclopropylpiperazin-1-yl]-1,2,4-triazin-6-yl}-5-(7-fluoro-2-methyl-2H-indazol-5-yl)pyridin-3-ol]",≤ 100
14,"CN1CCN(c2ncc(-c3ncc(-c4cn[nH]c4)cc3O)nn2)CC1 [Compound 152, 2-[3-(4-methylpiperazin-1-yl)-1,2,4-triazin-6-yl]-5-(1H-pyrazol-4-yl)pyridin-3-ol]",500 to 1000
15,"Cc1cn2nc(-c3cnc(-c4ccc(O[C@@H]5CC(C)(C)NC(C)(C)[C@@H]5F)nn4)c(O)c3)cc(C#N)c2n1.Cc1cn2nc(-c3cnc(-c4ccc(O[C@H]5CC(C)(C)NC(C)(C)[C@H]5F)nn4)c(O)c3)cc(C#N)c2n1 (mixture of isomers) [Compound 68, 6-[6-(6-{[(3R,4S)-3-fluoro-2,2,6,6-tetramethylpiperidin-4-yl]oxy}pyridazin-3-yl)-5-hydroxypyridin-3-yl]-2-methylimidazo[1,2-b]pyridazine-8-carbonitrile and 6-[6-(6-{[(3S,4R)-3-fluoro-2,2,6,6-tetramethylpiperidin-4-yl]oxy}pyridazin-3-yl)-5-hydroxypyridin-3-yl]-2-methylimidazo[1,2-b]pyridazine-8-carbonitrile]",≤ 100
16,"5-(7-fluoro-2-methyl-2H-indazol-5-yl)-2-{6-[(3R,5S)-3,4,5-trimethylpiperazin-1-yl]pyridazin-3-yl}pyridin-3-ol and 5-(7-fluoro-2-methyl-2H-indazol-5-yl)-2-{6-[(3S,5R)-3,4,5-trimethylpiperazin-1-yl]pyridazin-3-yl}pyridin-3-ol [Compound 91]",≤ 100
17,"CN[C@@H]1CCN(c2ccc(-c3ncc(-c4ncco4)cc3O)nn2)C1 [Compound 80, 2-{6-[(3R)-3-(methylamino)pyrrolidin-1-yl]pyridazin-3-yl}-5-(1,3-oxazol-2-yl)pyridin-3-ol]",100 to 500
18,"Cc1cn2nc(-c3cnc(-c4ccc(OC5CC(C)(C)NC(C)(C)C5)nn4)c(O)c3)cc(C)c2n1 [Compound 50, 5-(2,8-dimethylimidazo[1,2-b]pyridazin-6-yl)-2-{6-[(2,2,6,6-tetramethylpiperidin-4-yl)oxy]pyridazin-3-yl}pyridin-3-ol]",≤ 100
19,"CC1(C)CC(Oc2ccc(-c3ncc(-c4cn[nH]c4)cc3O)nn2)CC2(COC2)N1 (stereo not drawn) [Compound 114, 2-{6-[(6,6-dimethyl-2-oxa-5-azaspiro[3.5]nonan-8-yl)oxy]pyridazin-3-yl}-5-(1H-pyrazol-4-yl)pyridin-3-ol]",≤ 100
20,"[2H]C([2H])([2H])n1cc(-c2cnc(-c3ccc(N(C)C4CC(C)(C)NC5(CC5)C4)nn3)c(O)c2)cn1 (stereo not drawn) [Compound 53, 2-{6-[(5,5-dimethyl-4-azaspiro[2.5]octan-7-yl)(methyl)amino]pyridazin-3-yl}-5-[1-(^2H3)methyl-1H-pyrazol-4-yl]pyridin-3-ol]",≤ 100
21,"Cn1ccc(-c2cnc(-c3ccc(OC4CC(C)(C)NC(C)(C)C4)nn3)c(O)c2)n1 [Compound 4, 5-(1-methyl-1H-pyrazol-3-yl)-2-{6-[(2,2,6,6-tetramethylpiperidin-4-yl)oxy]pyridazin-3-yl}pyridin-3-ol]",≤ 100
22,"5-(1H-pyrazol-4-yl)-2-{6-[(3R,5S)-3,4,5-trimethylpiperazin-1-yl]pyridazin-3-yl}pyridin-3-ol and 5-(1H-pyrazol-4-yl)-2-{6-[(3S,5R)-3,4,5-trimethylpiperazin-1-yl]pyridazin-3-yl}pyridin-3-ol [Compound 90]",100 to 500
23,"[2H]C([2H])([2H])Oc1cc(-c2cnc(-c3ccc(N[C@@H]4CC(C)(C)NC(C)(C)[C@@H]4F)nn3)c(O)c2)ncn1 [Compound 25, 2-(6-{[(3R,4R)-3-fluoro-2,2,6,6-tetramethylpiperidin-4-yl]amino}pyridazin-3-yl)-5-{6-[(^2H3)methyloxy]pyrimidin-4-yl}pyridin-3-ol]",≤ 100
24,"CN(c1cnc(-c2ncc(-n3nccn3)cc2O)nn1)C1CC(C)(C)NC(C)(C)C1 [Compound 161, 2-{6-[methyl(2,2,6,6-tetramethylpiperidin-4-yl)amino]-1,2,4-triazin-3-yl}-5-(2H-1,2,3-triazol-2-yl)pyridin-3-ol]",≤ 100
